In brackets after ≈: the same amount, converted by molar mass. Where two headings read alike, the source gives them in different places.
What was measured:
[1] = pH value of 7.4; cited from earlier work
[2] = cited from earlier work; for half-life: oral administration
[3] = cited from earlier work
[4] = 1% suspension of vinpocetine in ethanol and 1-menthol applied directly to human full-thickness skin in vitro; cited from earlier work
[5] = format: in vitro ADME
Method: The first preliminary tests carried out in accordance with the present invention with a view to developing a matrix transdermal therapeutic system for administration of vinpocetine led to transdermal therapeutic systems (TTSs) by means of which a skin flux (permeation rate in steady state) of 0.91 μg/cm^2×h could be achieved. In order to adjust the therapeutically required concentration of 2 to 3 ng/ml of vinpocetine in a patient's plasma, a transdermal therapeutic system that is designed for an application period of 24 hours would have to have an area of about 120 cm^2. For reasons of patient acceptance, however, the surface area of a transdermal therapeutic system should be kept as small as possible and, if possible, should not exceed 40 cm^2, preferably 20 cm^2.

SMILES	proportion present in cationic form [1]	bioavailability ([2]; gastrointestinal absorption, not metabolised presystemically)	therapeutically required / effective plasma level ([2]; patient's plasma)	water solubility ([3]; base, 22° C.) [µg/mL]	solubility in ethanol or DMSO ([3]; ethanol or DMSO)	half-life [2]	water-solubility ([3]; base, 22° C.) [µg/mL]	permeation rate [4] [μg/cm^2×h]	skin flux (permeation rate in steady state) [5] [μg/cm^2×h]	time to enter the blood stream after administration ([2]; oral, fasting or with meals)	time until excreted by the body almost completely ([2]; oral)	water-solubility ([3]; room temperature) [µg/mL]
COc1nc(C)nc(Cl)c1NC1=NCCN1 [moxonidine, 4-chloro-N-(4,5-dihydro-1H-imidazol-2-yl)-6-methoxy-2-methyl-5-pyrimidinamine]	about 50%	about 90%	around 5.4 ng/ml	1360 (≈ 5.63 mM)	up to 100 mM	–	–	–	–	–	–	–
CCCN1C[C@H](CSC)C[C@@H]2c3cccc4[nH]cc(c34)C[C@H]21 [pergolide, D-6-n-propyl-8 β-methyl-mercaptomethyl-ergoline]	–	–	–	–	–	27 h	0.021	–	–	–	–	–
CCOC(=O)C1=C[C@]2(CC)CCCN3CCc4c(n1c1ccccc41)[C@@H]32 [vinpocetine, ethyl apovincamin-22-oate]	–	–	–	–	–	one to two	–	6.45	0.91	about half an hour	eight	0.02
